Measured values from patent publication US20080188528A1, “Modulators of C3a receptor and methods of use thereof” (priority 2006, published 2008).
Counter-ions that a name gives are not always drawn. Each block holds one compound with its values, some of them ahead of it.

Target: T1, human C3a receptor (C3aR) (Homo sapiens, UniProt Q16581)
T1 construct: expressed in transfected cells
T1 sequence (Q16581 1-482): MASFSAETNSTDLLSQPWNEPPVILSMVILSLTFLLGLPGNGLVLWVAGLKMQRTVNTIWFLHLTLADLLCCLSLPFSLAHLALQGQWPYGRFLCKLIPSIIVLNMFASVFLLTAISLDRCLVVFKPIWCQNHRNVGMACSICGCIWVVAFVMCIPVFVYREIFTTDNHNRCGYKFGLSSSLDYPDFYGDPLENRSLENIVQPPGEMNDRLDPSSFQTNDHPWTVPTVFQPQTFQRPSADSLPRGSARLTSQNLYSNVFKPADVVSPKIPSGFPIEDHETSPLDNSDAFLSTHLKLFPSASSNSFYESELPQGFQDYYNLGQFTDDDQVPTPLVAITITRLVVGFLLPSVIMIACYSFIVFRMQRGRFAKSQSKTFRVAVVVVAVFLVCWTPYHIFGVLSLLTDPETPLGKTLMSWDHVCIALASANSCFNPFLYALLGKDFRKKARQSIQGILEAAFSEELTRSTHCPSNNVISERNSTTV
Assay: Inhibition of human [125I]-C3a binding to human C3a receptor (SPA, membranes of HEK293 cells expressing recombinant C3aR)
Conditions: 0.1 nM [125I]-C3a, 3 hours at room temperature
Outline: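 HEK293 C3aR membranes were pre-coupled to WGA SPA beads and incubated 3 h at room temperature with 0.1 nM [125I]-C3a in HEPES pH 7.4 buffer containing 0.25% BSA and 0.2% CHAPS, DMSO ≤1%. Nonspecific binding was defined with 1 μM unlabeled C3a. IC50 came from nonlinear least-squares fitting.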

IC50 (Table 4): 0.05 to 0.5 µM
SMILES: CS(=O)(=O)NCCC[C@H](NC(=O)c1cccn(C(c2ccccc2)c2ccccc2)c1=O)C(=O)O [Compound 69, (S)-2-(1-benzhydryl-2-oxo-1,2-dihydropyridine-3-carboxamido)-5-(methylsulfonamido)pentanoic acid]

IC50 (Table 6): < 0.05 µM
SMILES: N=C(N)NC(=O)CC[C@H](NC(=O)c1ccc(C(c2ccccc2)c2ccccc2)cc1)C(=O)O [Compound 111, (2S)-5-Carbamimidamido-2-({[4-(diphenylmethyl)phenyl]carbonyl}amino)-5-oxopentanoic acid]

IC50 (Table 1): < 0.05 µM
SMILES: N=C(N)NCCC[C@H](NC(=O)c1cccn(Cc2ccccc2Br)c1=O)C(=O)O [Compound 3, (2S)-2-({[1-(2-bromobenzyl)-2-oxo-1,2-dihydropyridin-3-yl]carbonyl}amino)-5-carbamimidamidopentanoic acid•TFA]

IC50 (Table 6): < 0.05 µM
SMILES: CC(=N)NCCC[C@H](NC(=O)c1cccn(C(c2ccccc2)c2ccccc2)c1=O)C(=O)O [Compound 86, (2S)-2-({[1-(diphenylmethyl)-2-oxo-1,2-dihydropyridin-3-yl]carbonyl}amino)-5-(ethanimidoylamino)pentanoic acid•TFA]

IC50 (Table 3): < 0.05 µM
SMILES: CC(C)(C(=O)NC(c1ccccc1)c1ccccc1)C(=O)N[C@@H](CCCNC(=N)N)C(=O)O [Compound 58, (2S)-5-carbamimidamido-2-({3-[(diphenylmethyl)amino]-2,2-dimethyl-3-oxopropanoyl}amino)pentanoic acid•TFA]

IC50 (Table 4): < 0.05 µM
SMILES: COC(=O)[C@H](CCCNC(=N)N)NC(=O)c1cccn(C(c2ccccc2)c2ccccc2)c1=O [Compound 80, methyl (2S)-5-carbamimidamido-2-({[1-(diphenylmethyl)-2-oxo-1,2-dihydropyridin-3-yl]carbonyl}amino)pentanoate]

IC50 (Table 6): 0.5 to 20 µM
SMILES: CCCC(=N)NCCC[C@H](NC(=O)c1ccc(C(c2ccccc2)c2ccccc2)s1)C(=O)O [Compound 118, (2S)-5-(butanimidoylamino)-2-({[5-(diphenylmethyl)thiophen-2-yl]carbonyl}amino)pentanoic acid•TFA]

IC50 (Table 1): < 0.05 µM
SMILES: N=C(N)NCCC[C@H](NC(=O)c1cccn(Cc2cccc(Br)c2)c1=O)C(=O)O [Compound 4, (2S)-2-({[1-(3-bromobenzyl)-2-oxo-1,2-dihydropyridin-3-yl]carbonyl}amino)-5-carbamimidamidopentanoic acid•TFA]

IC50 (Table 6): < 0.05 µM
SMILES: N=C(N)NC(=O)CC[C@H](NC(=O)c1ccc(C(c2ccccc2)c2ccccc2)s1)C(=O)O [Compound 99, (2S)-5-Carbamimidamido-2-({[5-(diphenylmethyl)thiophen-2-yl]carbonyl}amino)-5-oxopentanoicacid]

IC50 (Table 1): 0.05 to 0.5 µM
SMILES: COc1ccc2cc(Cn3cccc(C(=O)N[C@@H](CCCNC(=N)N)C(=O)O)c3=O)ccc2c1 [Compound 19, (2S)-5-carbamimidamido-2-[({1-[(6-methoxy-2-naphthyl)methyl]-2-oxo-1,2-dihydropyridin-3-yl}carbonyl)amino]pentanoic acid•TFA]

IC50 (Table 6): < 0.05 µM
SMILES: CC(C)(C)Cn1cccc(C(=O)N[C@@H](CCCNC(=N)N)C(=O)O)c1=O [Compound 90, (2S)-5-carbamimidamido-2-({[1-(2,2-dimethylpropyl)-2-oxo-1,2-dihydropyridin-3-yl]carbonyl}amino)pentanoic acid•TFA]

IC50 (Table 6): 0.5 to 20 µM
SMILES: CC(=N)Nc1ccc([C@H](NC(=O)c2ccc(C(c3ccccc3)c3ccccc3)s2)C(=O)O)cc1 [Compound 135, (2S)-({[5-(Diphenylmethyl)thiophen-2-yl]carbonyl}amino)[4-(ethanimidoylamino)phenyl]ethanoicacid]

IC50 (Table 6): 0.05 to 0.5 µM
SMILES: N=CNCCC[C@H](NC(=O)c1ccc(C(c2ccccc2)c2ccccc2)s1)C(=O)O [Compound 133, (2S)-2-({[5-(diphenylmethyl)thiophen-2-yl]carbonyl}amino)-5-[(iminomethyl)amino]pentanoic acid•TFA]

IC50 (Table 4): 0.05 to 0.5 µM
SMILES: Cc1c(C)c(S(=O)(=O)NC(=N)NCCC[C@H](NC(=O)c2cccn(CC(c3ccccc3)c3ccccc3)c2=O)C(=O)O)c(C)c2c1OC(C)(C)CC2 [Compound 79, (2S)-2-({[1-(2,2-diphenylethyl)-2-oxo-1,2-dihydropyridin-3-yl]carbonyl}amino)-5-{[(2,2,5,7,8-pentamethyl-3,4-dihydro-2H-chromen-6-yl)sulfonyl]carbamimidamido}pentanoic acid•TFA]

IC50 (Table 1): < 0.05 µM
SMILES: N=C(N)NCCC[C@H](NC(=O)c1cccn(Cc2ccccc2-c2ccc(F)cc2)c1=O)C(=O)O [Compound 31, (2S)-5-carbamimidamido-2-[({1-[(4′-fluorobiphenyl-2-yl)methyl]-2-oxo-1,2-dihydropyridin-3-yl}carbonyl)amino]pentanoic acid•TFA]

IC50 (Table 4): 0.5 to 20 µM
SMILES: NCCCC[C@H](NC(=O)c1cccn(Cc2ccccc2)c1=O)C(=O)O [Compound 60, (2S)-6-amino-2-{[(1-benzyl-2-oxo-1,2-dihydropyridin-3-yl)carbonyl]amino}hexanoic acid•TFA]

IC50 (Table 6): 0.5 to 20 µM
SMILES: COc1ccn(C(c2ccccc2)c2ccccc2)c(=O)c1C(=O)N[C@@H](CCCNC(C)=N)C(=O)O [Compound 122, (2S)-2-({[1-(diphenylmethyl)-4-methoxy-2-oxo-1,2-dihydropyridin-3-yl]carbonyl}amino)-5-(ethanimidoylamino)pentanoic acid•TFA]

IC50 (Table 6): 0.05 to 0.5 µM
SMILES: CC(=N)NCC[C@H](NC(=O)c1cccn(C(c2ccccc2)c2ccccc2)c1=O)C(=O)O [Compound 94, (2S)-2-({[1-(diphenylmethyl)-2-oxo-1,2-dihydropyridin-3-yl]carbonyl}amino)-4-(ethanimidoylamino)butanoic acid•TFA]

IC50 (Table 6): 0.05 to 0.5 µM
SMILES: CC(=O)NCCC[C@H](NC(=O)c1cccn(C(c2ccccc2)c2ccccc2)c1=O)C(=O)O [Compound 91, (2S)-5-(Acetylamino)-2-({[1-(diphenylmethyl)-2-oxo-1,2-dihydropyridin-3-yl]carbonyl}amino)pentanoic acid]

IC50 (Table 1): < 0.05 µM
SMILES: N=C(N)NCCC[C@H](NC(=O)c1cccn(CCC(c2ccccc2)c2ccccc2)c1=O)C(=O)O [Compound 12, (2S)-5-carbamimidamido-2-({[1-(3,3-diphenylpropyl)-2-oxo-1,2-dihydropyridin-3-yl]carbonyl}amino)pentanoic acid•TFA]

IC50 (Table 1): < 0.05 µM
SMILES: N=C(N)NCCC[C@H](NC(=O)c1cccn(Cc2ccc(-c3ccccc3)cc2)c1=O)C(=O)O [Compound 22, (2S)-2-({[1-(biphenyl-4-ylmethyl)-2-oxo-1,2-dihydropylidin-3-yl]carbonyl}amino)-5-carbamimidamidopentanoic acid]

IC50 (Table 3): 0.05 to 0.5 µM
SMILES: N=C(N)NCCC[C@H](NC(=O)c1cccc(=O)n1Cc1ccccc1)C(=O)O [Compound 55, (2S)-2-{[(1-benzyl-6-oxo-1,6-dihydropyridin-2-yl)carbonyl]amino}-5-carbamimidamidopentanoic acid•TFA]

IC50 (Table 5): 0.05 to 0.5 µM
SMILES: O=C(N[C@@H](Cc1c[nH]cn1)C(=O)O)c1cccn(C(c2ccccc2)c2ccccc2)c1=O [Compound 85, (2S)-2-({[1-(diphenylmethyl)-2-oxo-1,2-dihydropyridin-3-yl]carbonyl}amino)-3-(1H-imidazol-4-yl)propanoic acid•TFA]

IC50 (Table 1): 0.05 to 0.5 µM
SMILES: N=C(N)NCCC[C@H](NC(=O)c1cccn(C2c3ccccc3-c3ccccc32)c1=O)C(=O)O [Compound 10, (2S)-5-carbamimidamido-2-({[1-(9H-fluoren-9-yl)-2-oxo-1,2-dihydropyridin-3-yl]carbonyl}amino)pentanoic acid•TFA]

IC50 (Table 4): 0.05 to 0.5 µM
SMILES: N=C(NCCC[C@H](NC(=O)c1cccn(C(c2ccccc2)c2ccccc2)c1=O)C(=O)O)N[N+](=O)[O-] [Compound 74, (2S)-2-({[1-(diphenylmethyl)-2-oxo-1,2-dihydropyridin-3-yl]carbonyl}amino)-5-(nitrocarbamimidamido)pentanoic acid]

IC50 (Table 4): 0.05 to 0.5 µM
SMILES: CCOC(=O)N=C(NCCC[C@H](NC(=O)c1cccn(C(c2ccccc2)c2ccccc2)c1=O)C(=O)O)NC(C)C [Compound 82, (2S)-2-({[1-(diphenylmethyl)-2-oxo-1,2-dihydropyridin-3-yl]carbonyl}amino)-5-{[{(ethoxycarbonyl)amino}(isopropylamino)methylene]amino}pentanoic acid]

IC50 (Table 2): < 0.05 µM
SMILES: N=C(N)NCCC[C@H](NC(=O)c1cccn(C(c2ccc(F)cc2)c2ccc(F)cc2)c1=O)C(=O)O [Compound 44, (2S)-2-[({1-[bis(4-fluorophenyl)methyl]-2-oxo-1,2-dihydropyridin-3-yl}carbonyl)amino]-5-carbamimidamidopentanoic acid•TFA]

IC50 (Table 2): < 0.05 µM
SMILES: N=C(N)NCCC[C@H](NC(=O)c1cccn(C(c2ccccc2)c2ccccc2)c1=O)C(=O)O [Compound 40, (2S)-5-carbamimidamido-2-({[1-(diphenylmethyl)-2-oxo-1,2-dihydropyridin-3-yl]carbonyl}amino)pentanoic acid•TFA]

IC50 (Table 6): 0.5 to 20 µM
SMILES: N=C(NCCC[C@H](NC(=O)c1ccc(C(c2ccccc2)c2ccccc2)s1)C(=O)O)C1CC1 [Compound 121, (2S)-5-{[cyclopropyl(imino)methyl]amino}-2-({[5-(diphenylmethyl)thiophen-2-yl]carbonyl}amino)pentanoic acid•TFA]
